Measurements as given in patent publication US4056625A, “Pesticidal compositions containing benzodioxole derivatives and methods of combating pests” (priority 1972, dated 1977).

Test system: second instar larvae of the cabbage white butterfly (Pieris brassicae)
Assay: Cabbage white butterfly larvae on treated cabbage leaf discs (Examples 41-48)
Format: in vivo
Conditions: 10, 5, 1, 0.5 and 0.25 pounds per acre, three replications, after 48 hours
Source text: 7 centimeter diameter circular discs of cabbage leaves were painted with 1 milliliter aqueous acetone solutions of each of the following compounds:
in each case at concentrations equivalent to leaf applications of 10, 5, 1, 0.5 and 0.25 pounds per acre (11.2, 5.6, 1.12, 0.56 and 0.28 kg./hectare) of active ingredient. When the deposit on the leaf discs had dried, each leaf disc was placed in a 9 centimeter diameter Petri dish, infested with ten second instar larvae of the cabbage white butterfly (Pieris brassicae) and covered with a glass lid. Three replications were made with each compound at each concentration level.

Compound	mortality of cabbage white butterfly larvae
CNC(=O)Oc1ccc(C)c2c1OC(C)(C)O2 [2,2,7-trimethyl-1,3-benzodioxol-4-yl N-methylcarbamate]	all found to be dead
C#CCN(C(C)=O)C(=O)Oc1cccc2c1OC(C)(C)O2 [2,2-dimethyl-1,3-benzodioxol-4-yl N-acetyl-N-propargylcarbamate]	all found to be dead
C=CCNC(=O)Oc1cccc2c1OC(C)(C)O2 [2,2-dimethyl-1,3-benzodioxol-4-yl N-allylcarbamate]	all found to be dead
C#CCNC(=O)Oc1cccc2c1OC(C)(C)O2 [2,2-dimethyl-1,3-benzodioxol-4-yl N-propargylcarbamate]	all found to be dead
CNC(=O)Oc1cccc2c1OC1(CCCC1)O2 [2,2-tetramethylene-1,3-benzodioxol-4-yl N-methylcarbamate]	all found to be dead
CCC1(C)Oc2cccc(OC(=O)NC)c2O1 (stereo not drawn) [2-ethyl-2-methyl-1,3-benzodioxol-4-yl N-methylcarbamate]	all found to be dead

Test system: adult female yellow fever mosquitos (Aedes aegypti)
Assay: Yellow fever mosquitos in coated glass tubes (Examples 61-64)
Format: in vivo
Conditions: 3 mg of active ingredient per square foot, after 24 hours
Method: Acetone solutions of the compounds
were applied to the inside walls of glass tubes 9 cm high by 4.5 cm diameter so that after the acetone had evaporated a coating equivalent to 3 mg of active ingredient per square foot remained. Batches of adult female yellow fever mosquitos (Aedes aegypti) were then caged in the tubes.

Compound	mortality of yellow fever mosquitos
CCC1(CC)Oc2cccc(OC(=O)N(C)C(C)=O)c2O1 [2,2-diethyl-1,3-benzodioxol-4-yl N-acetyl-N-methylcarbamate]	all found to be dead
CC(=O)N(C)C(=O)Oc1cccc2c1OC1(CCCCC1)O2 [2,2-pentamethylene-1,3-benzodioxol-4-yl N-acetyl-N-methylcarbamate]	all found to be dead
CC(=O)N(C)C(=O)Oc1cccc2c1OC1(CCCC1)O2 [2,2-tetramethylene-1,3-benzodioxol-4-yl N-acetyl-N-methylcarbamate]	all found to be dead

Test system: adult female houseflies (Musca domestica)
Assay: Housefly mortality on treated filter papers (Examples 32-40)
Format: in vivo
Conditions: 100 milligrams per square foot, after 24 hours
Source text: 9 centimeter diameter filter papers treated with aqueous acetone solutions of each of the compounds
at rates equivalent to 100 milligrams per square foot (100 mgm./0.09 m^2.) of active ingredient were placed in 9 centimeter diameter Petri dishes. Batches of adult female houseflies (Musca domestica) lightly anaesthetised with carbon dioxide were then introduced into the dishes and a glass lid placed over each.

Compound	mortality of houseflies
CCCC(=O)N(C)C(=O)Oc1cccc2c1OCO2 [1,3-benzodioxol-4-yl N-butyryl-N-methylcarbamate]	all found to be dead
CNC(=O)Oc1cccc2c1OCO2 [1,3-benzodioxol-4-yl N-methylcarbamate]	all found to be dead
CC(=O)N(C)C(=O)Oc1cc(C)cc2c1OC(C)(C)O2 [2,2,6-trimethyl-1,3-benzodioxol-4-yl N-acetyl-N-methylcarbamate]	all found to be dead
C=CCN(C(C)=O)C(=O)Oc1cccc2c1OC(C)(C)O2 [2,2-dimethyl-1,3-benzodioxol-4-yl N-acetyl-N-allylcarbamate]	all found to be dead
CC(=O)N(C)C(=O)Oc1cccc2c1OC(C)O2 (stereo not drawn) [2-methyl-1,3-benzodioxol-4-yl N-acetyl-N-methylcarbamate]	all found to be dead

Test system: first instar larvae of the sheep blowfly (Lucilia sericata)
Assay: Sheep blowfly larvae on treated cotton wool pads (Examples 53-60)
Format: in vivo
Conditions: 1/2 ml. of acetone solution on cotton wool pads, after 24 hours
Method: Cylindrical pads of cotton wool, approximate diameter 1 cm., length 2 cms. were treated with 1/2 ml. of acetone solutions of the following carbamates:
After leaving for 12 hours to dry, the pads were treated with 1 ml. of sheep blood serum and infested with 20 first instar larvae of the sheep blowfly (Lucilia sericata). After 24 hours, the blowflies were examined and found to be all dead; insects similarly infested on untreated pads were unaffected.

Compound	mortality of sheep blowfly larvae
CNC(=O)Oc1cc(C)cc2c1OC(C)(C)O2 [2,2,6-trimethyl-1,3-benzodioxol-4-yl N-methylcarbamate]	all dead
CNC(=O)Oc1ccc(C)c2c1OC(C)(C)O2 [2,2,7-trimethyl-1,3-benzodioxol-4-yl N-methylcarbamate]	all dead
CCC1(CC)Oc2cccc(OC(=O)NC)c2O1 [2,2-diethyl-1,3-benzodioxol-4-yl N-methylcarbamate]	all dead
CCC1(C)Oc2cccc(OC(=O)NC)c2O1 (stereo not drawn) [2-ethyl-2-methyl-1,3-benzodioxol-4-yl N-methylcarbamate]	all dead
CNC(=O)Oc1cccc2c1OC(C)O2 (stereo not drawn) [2-methyl-1,3-benzodioxol-4-yl N-methylcarbamate]	all dead
CNC(=O)Oc1cccc2c1OC(C)(C(C)(C)C)O2 (stereo not drawn) [2-tert-butyl-2-methyl-1,3-benzodioxol-4-yl N-methylcarbamate]	all dead
CCc1ccc(OC(=O)NC)c2c1OC(C)(C)O2 [7-ethyl-2,2-dimethyl-1,3-benzodioxol-4-yl N-methylcarbamate]	all dead
